Measurements reported in US9260710B2, “Photocleavable linker” (City of Hope, priority 2012, dated 2016).
One block for each compound: values may come before it.

Tests used:
[1] = target: T1, LC8 and FKBP-LC8TRAP (Homo sapiens, UniProt P62942, F37V); test: Native PAGE of LC8-LC8TRAP complex formation induced by dimerizer; assay type: biochemical; details: for complex formation between LC8 and FKBP-LC8TRAP (new band): native PAGE, addition of dimerization agent
T1 construct: made in house; host or cells: bacteria (pET21D vector)
Protocol: Native PAGE. Each of, LC8 and FKBP-LC8TRAP, were mixed in a molar concentration of 50 μM and 1.2 molar excess (60 μM) of AP20187 or 2.4 molar excess (120 μM) of PhAP20187. The mix were incubated at 4° C. for 5 min. Native PAGE analysis was performed at 16° C. using 8-25% gradient gels on the PHASTSYSTEM™ (GE Biosciences).
We then tested whether this replacement of the amine linker with the o-nitrobenzyl moiety affected the dimerization of FKBP in vitro. We used native PAGE to follow the formation of the LC8-LC8 molecular trap (LC8TRAP) complex induced by addition of PhAP. See e.g., Varma et al., 2010 (Id.) Upon the addition of PhAP to an equimolar mixture of LC8 and LC8TRAP, we observed a new band that migrated the same distance as the band produced by addition of AP (FIG. 2A).
Native PAGE analysis was conducted for stoichiometric complex formation between LC8 and FKBP-LC8TRAP on addition of dimerization agent AP.

[2] = test system: non-transfected or GFPFKBP-expressing cells; test: Organelle dispersion in cells without trap treated with AP20187; assay type: cell-based
From the text: (§1) In vivo effect of Dynein LC and IC Traps. As tests for LC function, we evaluated the effects of the traps on early endosome, lysosome, and Golgi distribution, as well as mitotic progression. First, we fused green fluorescent protein (GFP) to the N-terminus of both FKBP-traps to identify transfected cells. Next, we transfected Cos1, Cos7, or HeLa cells with either trap or a GFP-FKBP control and labeled endosomes, lysosomes and Golgi with EEA1, LAMP2 and GM130 markers, respectively (FIGS. 12A-12C). […] The percentage of cells expressing the GFPLC8 or GFP-TcTex1 trap with dispersed endosomes was 14.7±1.5% and 13.3±1.5%, respectively, as compared to 11.7±3.5% and 10.3±3.5% for non-transfected cells and cells that expressed a GFP-FKBP control, respectively. […] After 8 h of treatment with AP20187, we observed greater than 50% dispersion of the three organelle types for each trap.
(§2) To ensure the AP20187 concentration was not limiting, we followed the LC8-trap-induced dispersion of lysosomes as a function of AP20187 concentration after 8 h. […] For the TcTex1-trap, we observed efficient endosome, lysosome and Golgi dispersion at AP20187 concentrations of 1 μM or greater.

[3] = test system: GFP-LC8 trap transfected Cos1/Cos7 cells; test: Organelle dispersion and microtubule array in cells expressing the LC8 trap; assay type: cell-based
From the text: as §1, §2
(§3) Kinetic Analysis Separates Dynein Functions. A major purpose for developing these traps is to provide immediate inhibition of protein function and follow the cellular response from this perturbation to gain new insight. Thus, we monitored the fraction of cells with dispersed organelles as a function of time. After induction of dimerization by AP20187, effects on both early endosome and lysosome distribution were detectable at 10 min, and leveled off at ˜2 h (FIGS. 14A-14B). […] The most rapid effect was observed on lysosomes in cells expressing the LC8 trap. In striking contrast, Golgi dispersal using either trap occurred over a much longer time-course, requiring 8 h after induction of dimerization to reach similar levels of dispersion as for endosomes and lysosomes. Twenty-four hours after addition of AP20187, the percentage of cells with dispersed Golgi reached levels greater than 85%.

[4] = test system: GFP-TcTex1 trap transfected Cos1/Cos7 cells; test: Organelle dispersion and microtubule array in cells expressing the TcTex1 trap; assay type: cell-based; set-up: dispersion of the three organelle types (early endosomes, lysosomes, Golgi): dose or concentration left out as unconfirmed
From the text: as §1, §2, §3

[5] = test system: GFP IC trap transfected Cos1 cells; test: Organelle dispersion and microtubule array in cells expressing the IC trap; assay type: cell-based
Protocol: FIGS. 13A-13B. FIGS. 13A-13B depict that induction of IC traps leads to Endosome (FIG. 13A) and Golgi apparatus (FIG. 13B) dispersion. Cos1 cells were transfected with the GFP IC trap (upper rights panels of FIGS. 13A and 13B) for 24 h and then treated with AP20187 for 1 h. The cells were stained with DAPI for nuclei (upper left panels of FIGS. 13 A and 13B) and EEA1 for endosomes (FIG. 13A, lower left panel)) or GM130 marker for Golgi bodies (FIG. 13B, lower left panel). Note the endosomes and Golgi apparatus are dispersed (marked “d”) within 10 min and 1 h, respectively. Cells not containing the IC trap all show compact endosomes and Golgi bodies (marked “c”). Scale bar is 5 μm.
As a test for effects on cytoplasmic dynein functions that are distinct from vesicular transport, we monitored mitotic behavior in cells expressing either the LC8- or TcTex1-traps. We observed little effect on either mitotic index or the fraction of mitotic cells at discrete mitotic stages with either trap (data not shown). […] Finally, similar studies were carried out using the IC trap. As before, we observed little or no change in the dispersion of endosomes and Golgi apparatus before AP20187 treatment. Induction of dimerization through the addition of AP20187 (1 μM) produced immediate changes in both organelles. After 4 h, 81+4% of cells contained dispersed endosomes and 68+3% of cells contained dispersed Golgi. […] The precise reason for this difference is not clear; however, currently, we attribute this to a change in the cytoskeleton, but this must still be verified. We are also in the process of measuring the effect of sequestering the dynein IC on mitotic behavior.
Microtubule architecture. Known methods of inhibiting cytoplasmic dynein, such as expression of dynactin polypeptides or RNAi against the dynein regulatory factors NudEL and ZW10, cause disorganization of the radial microtubule (MT) network in cultured mammalian cells 52-54. […] This is consistent with previous studies where overexpressing a dimeric form of the IC trap (e.g., CC1 of p150glued) also disrupts of the MT array).

[6] = after induction of dimerization
[7] = twenty-four hours after addition
[8] = Cos1 cells, after AP20187 addition

T1 sequence (P62942 with tags, fused parts or gaps F37V): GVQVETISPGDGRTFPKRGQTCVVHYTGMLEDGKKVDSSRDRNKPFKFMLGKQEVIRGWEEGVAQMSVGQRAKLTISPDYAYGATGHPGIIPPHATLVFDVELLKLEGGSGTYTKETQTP

complex formation between LC8 and FKBP-LC8TRAP (new band) [1]: produces a new band
Compound: CCC(C(=O)N1CCCCC1C(=O)OC(CCc1ccc(OC)c(OC)c1)c1cccc(OCC(=O)NCC(CNC(=O)COc2cccc(C(CCc3ccc(OC)c(OC)c3)OC(=O)C3CCCCN3C(=O)C(CC)c3cc(OC)c(OC)c(OC)c3)c2)CN(C)C)c1)c1cc(OC)c(OC)c(OC)c1 (stereo not drawn) [AP, AP20187]
effect on dispersion for each organelle ([2]; AP20187 for 8 h): did not affect the dispersion
dispersal of organelles at any concentration tested ([2]; non-transfected cells, <2 μM): did not show dispersal
dispersion of the three organelle types (early endosomes, lysosomes, Golgi) ([3]; 8 h of treatment, 100 μM AP20187): greater than 50%
microtubule radial array / cytoskeleton changes ([3]; 8 h post-induction): No significant changes
AP20187 concentration at which lysosome dispersion reached a plateau ([3]; after 8 h): 100 nM
time at which effects on early endosome and lysosome distribution leveled off [3, 6]: ~2 h
time at which effects on early endosome and lysosome distribution were detectable [3, 6]: 10 min
time required for Golgi dispersal to reach similar levels as endosomes and lysosomes [3, 6]: 8 h
percentage of cells with dispersed Golgi [3, 7]: greater than 85%
AP20187 concentrations giving efficient endosome, lysosome and Golgi dispersion [4]: ≥ 1 µM
dispersion of the three organelle types (early endosomes, lysosomes, Golgi) ([4]; 8 h of treatment): greater than 50%
microtubule radial array / cytoskeleton changes ([4]; 8 h post-induction): No significant changes
time at which effects on early endosome and lysosome distribution leveled off [4, 6]: ~2 h
time at which effects on early endosome and lysosome distribution were detectable [4, 6]: 10 min
time required for Golgi dispersal to reach similar levels as endosomes and lysosomes [4, 6]: 8 h
percentage of cells with dispersed Golgi [4, 7]: greater than 85%
cells containing dispersed Golgi ([5]; AP20187 1 μM, after 4 h): 68+3%
cells containing dispersed endosomes ([5]; AP20187 1 μM, after 4 h): 81+4%
microtubule (MT) radial array ([5]; AP20187-induced dimerization of the IC trap): significantly disrupted
time within which Golgi apparatus is dispersed [5, 8]: ≤ 1 h
time within which endosomes are dispersed [5, 8]: ≤ 10 min

concentration required to produce a complex band of the same intensity as the sample treated with AP ([1]; equimolar mixture of LC8 and LC8TRAP, relative to AP): 2 ×
Compound: CC[C@H](C(=O)N1CCCC[C@H]1C(=O)O[C@H](CCc1ccc(OC)c(OC)c1)c1cccc(OCC(=O)OC(C)c2ccc(C(C)OC(=O)COc3cccc([C@@H](CCc4ccc(OC)c(OC)c4)OC(=O)[C@@H]4CCCCN4C(=O)[C@@H](CC)c4cc(OC)c(OC)c(OC)c4)c3)c([N+](=O)[O-])c2)c1)c1cc(OC)c(OC)c(OC)c1 (stereo partly drawn) [PhAP]
complex formation between LC8 and FKBP-LC8TRAP (new band) [1]: can also form complex between LC8 and FKBP-LC8TRAP efficiently
